Experimental data from patent US20260061084A1, “FIBROBLAST ACTIVATION PROTEIN (FAP) INHIBITORS, FAP CONJUGATES, AND DIAGNOSTIC AND THERAPEUTIC USES THEREOF” (Nuclidium AG, priority 2022, published 2026).

Legend:
[1] = tested on: HT-1080.hFAP (FAP-positive) cells; assay: In vitro cellular uptake (cell surface-bound and internalized fractions); type: cell-based, human; details: 37° C., specific uptake (HT-1080.wt subtracted)
Experimental: The cellular uptake was studied in vitro using intact cells seeded in 6-well plates overnight. […] At each investigated time point, the medium containing the unbound (free) radiotracer was removed, followed by two washing steps with ice-cold phosphate-buffered saline. The cells were then treated 2×5 min with ice-cold glycine solution (0.05 M, pH 2.8) to detach the cell surface-bound radiotracer (acid released). Afterwards, the cells containing the internalized radiotracer were detached with 1 M NaOH at 37° C. and collected for measurement. The amount of specific cell surface-bound and internalized radiotracer is expressed as percentage of the total applied activity, after subtracting the non-specific values.
The cells were then preconditioned in 360 μL of assay medium (MEM medium without supplements) at 37° C. for 60 min. 40 μL of a 2 nM solution of ^61Cu-labeled radioligand was added and the cells were incubated at 37° C. The cellular uptake was interrupted at different time points (15 min, 1 hour and 4 hours), by washing twice with ice-cold PBS. Cell surface-bound radioligand was obtained by washing cells twice with ice-cold glycine buffer (pH 2.8), followed by a collection of the internalized fraction with 1 M NaOH. The activity in each fraction was measured in a […] (Cobra II).

[2] = tested on: HT-1080.hFAP tumor-bearing mice; assay: Biodistribution studies in xenografted mice; type: in vivo; details: for Biodistribution: Intestine / Biodistribution: Liver / Biodistribution: Pancreas / Biodistribution: Spleen / Biodistribution: Stomach / Biodistribution: Adrenal / Biodistribution: Heart / Biodistribution: Kidneys / Biodistribution: Lung / Biodistribution: HT-1080.wt / Biodistribution: HT-1080.hFAP / Biodistribution: Muscle / Biodistribution: Blood: i.v.; for Biodistribution: HT-1080.wt: FAP-negative tumor; for Biodistribution: HT-1080.hFAP: FAP-positive tumor; for Accumulation in FAP-positive (HT-1080.hFAP) tumor and murine-FAP-positive tissues, such as the bone marrow (bones): xenografted mice, 1 h and 4 h p.i.
Experimental: The tumors were allowed to grow to an average volume of 100-200 mm^3.
Biodistribution Studies: The xenografted mice were randomized (n=5 per group) and injected intravenously via the tail vein with the ^61Cu-labeled radioligands (100 μL, […], 0.8-1MBq). Mice were euthanized 1 h and 4 h p.i. by CO2 asphyxiation. Organs of interest and blood were collected, rinsed of excess blood, blotted dry, weighed, and counted in a […]. The samples were counted against a suitably diluted aliquot of the injected solution as the standard and the results are expressed as the percentage of the injected activity per gram of tissue (% I.A./g) ±SD.

[3] = tested on: Mice bearing FAP-positive and FAP-negative xenografts; assay: PET/CT imaging: remaining PET activity in the mouse body; type: in vivo
Experimental: The mice were euthanized by CO2 at 4 hours p.i., and static PET scans were acquired for 30 min.
PET/CT images were acquired using β-CUBE PET scanner system (Molecubes, Gent, Belgium), with a spatial resolution of 0.85 mm and an axial field-of-view of 13 cm. Dynamic PET scans were acquired for 60 min. All PET scans were decay corrected and reconstructed into a 192×192×384 matrix by an ordered subsets maximization expectation (OSEM) algorithm using 30 iterations, a voxel size of 400×400×400 μm a 15 min per frame. CT data was used to apply attenuation correction on the PET data. The CT was imaged supine, head first, using the NanoSPECT/CTTM scanner (Bioscan Inc.). Topograms and helical CT scans of the whole mouse were first acquired using the following parameters: X-ray tube current: 177 μA, X-ray tube voltage 45 kVp, 90 seconds and 180 frames per rotation, pitch 1. CT images were reconstructed using CTReco (version r1.146), with a standard filtered back projection algorithm (exact cone beam) and post-filtered (RamLak, 100% frequency cut-off), resulting in a pixel size of 0.2 mm. Co-registered PET/CT images were visualized using maximum intensity projection (MIP) with VivoQuant software (version 4.0).

Row | SMILES | Cell surface fraction ([1]; 15 min) | Internalized fraction ([1]; 30 min) | Cell surface fraction ([1]; 60 min) | Internalized fraction ([1]; 60 min) | Cell surface fraction ([1]; 240 min) | Internalized fraction ([1]; 240 min) | Biodistribution: Intestine ([2]; 1 hour p.i.) [% I.A./g] | Biodistribution: Liver ([2]; 1 hour p.i.) [% I.A./g] | Biodistribution: Spleen ([2]; 1 hour p.i.) [% I.A./g] | Biodistribution: Stomach ([2]; 1 hour p.i.) [% I.A./g] | Biodistribution: Heart ([2]; 4 hours p.i.) [% I.A./g] | Biodistribution: Intestine ([2]; 4 hours p.i.) [% I.A./g] | Biodistribution: Liver ([2]; 4 hours p.i.) [% I.A./g] | Biodistribution: Lung ([2]; 4 hours p.i.) [% I.A./g] | Biodistribution: Spleen ([2]; 4 hours p.i.) [% I.A./g] | Biodistribution: Stomach ([2]; 4 hours p.i.) [% I.A./g] | Biodistribution: HT-1080.wt ([2]; 1 hour p.i.) [% I.A./g] | Biodistribution: HT-1080.wt ([2]; 4 hours p.i.) [% I.A./g] | Biodistribution: HT-1080.hFAP ([2]; 1 hour p.i.) [% I.A./g] | Biodistribution: HT-1080.hFAP ([2]; 4 hours p.i.) [% I.A./g] | other results
1 | CN(CCCN1CCN(C(=O)CCC(C(=O)O)N2CCN(CC(=O)[O-])CCN(CC(=O)[O-])CC2)CC1)c1ccc2nccc(C(=O)NCC(=O)N3CC(F)(F)CC3C#N)c2c1.[61Cu+2] (centres unmarked) [[^61Cu]Cu-NODAGA-FAPI-46, reference compound] | 0.9 ± 0.3 % of the applied activity | 24.3 ± 2.3 % of the applied activity | 1.2 ± 0.4 % of the applied activity | 36.1 ± 1.6 % of the applied activity | 1.7 ± 0.4 % of the applied activity | 50.0 ± 6.0 % of the applied activity | 1.0 ± 0.4 | 0.9 ± 0.0 | 0.7 ± 0.1 | 1.0 ± 0.1 | 0.7 ± 0.1 | 0.6 ± 0.2 | 0.8 ± 0.2 | 1.0 ± 0.1 | 0.5 ± 0.1 | 0.6 ± 0.1 | 3.1 ± 0.0 | 2.5 ± 0.2 | 8.4 ± 1.4 | 7.7 ± 0.4 | Biodistribution: Pancreas ([2]; 1 hour p.i.): 2.0 ± 0.2 % I.A./g; Biodistribution: Adrenal ([2]; 4 hours p.i.): 2.0 ± 0.2 % I.A./g; Biodistribution: Kidneys ([2]; 4 hours p.i.): 1.0 ± 0.1 % I.A./g; Retention in the body (remaining PET activity 4 h p.i.), in words [3]: highest retention in the body
2 | CN(C(=O)CCC(=O)NCCNC(=O)CCC(C(=O)O)N1CCN(CC(=O)[O-])CCN(CC(=O)[O-])CC1)c1ccc2nccc(C(=O)NCC(=O)N3CC(F)(F)CC3C#N)c2c1.[61Cu+2] (centres unmarked) [[^61Cu]Cu-NODAGA-2] | 1.2 ± 0.6 % of the applied activity | 20.7 ± 5.5 % of the applied activity | 1.4 ± 0.5 % of the applied activity | 27.0 ± 6.9 % of the applied activity | 1.3 ± 0.5 % of the applied activity | 28.3 ± 7.5 % of the applied activity | 0.5 ± 0.1 | 0.6 ± 0.1 | 0.4 ± 0.1 | 0.6 ± 0.1 | 0.3 ± 0.0 | 0.3 ± 0.1 | 0.6 ± 0.1 | 0.4 ± 0.0 | 0.2 ± 0.0 | 0.3 ± 0.1 | 1.4 ± 0.2 | 0.9 ± 0.1 | 3.5 ± 1.0 | 4.0 ± 0.6 | Biodistribution: Heart ([2]; 1 hour p.i.): 0.6 ± 0.1 % I.A./g; Biodistribution: Lung ([2]; 1 hour p.i.): 0.8 ± 0.1 % I.A./g; Biodistribution: Muscle ([2]; 1 hour p.i.): 0.9 ± 0.1 % I.A./g; Biodistribution: Adrenal ([2]; 4 hours p.i.): 0.3 ± 0.1 % I.A./g; Biodistribution: Blood ([2]; 4 hours p.i.): 0.5 ± 0.1 % I.A./g; Biodistribution: Kidneys ([2]; 4 hours p.i.): 1.0 ± 0.1 % I.A./g; Biodistribution: Muscle ([2]; 4 hours p.i.): 0.4 ± 0.1 % I.A./g; Biodistribution: Pancreas ([2]; 4 hours p.i.): 0.5 ± 0.0 % I.A./g; Accumulation in FAP-positive (HT-1080.hFAP) tumor and murine-FAP-positive tissues, such as the bone marrow (bones) [2]: high accumulation
3 | CN(C(=O)CCC(=O)N1CCN(C(=O)CCC(C(=O)O)N2CCN(CC(=O)[O-])CCN(CC(=O)[O-])CC2)CC1)c1ccc2nccc(C(=O)NCC(=O)N3CC(F)(F)CC3C#N)c2c1.[61Cu+2] (centres unmarked) [[^61Cu]Cu-NODAGA-4] | 1.0 ± 0.7 % of the applied activity | 22.2 ± 7.4 % of the applied activity | 1.4 ± 0.4 % of the applied activity | 22.2 ± 5.1 % of the applied activity | 0.9 ± 0.6 % of the applied activity | 17.4 ± 4.4 % of the applied activity | 0.5 ± 0.2 | 0.6 ± 0.1 | 0.4 ± 0.0 | 0.5 ± 0.0 | 0.2 ± 0.0 | 0.3 ± 0.1 | 0.4 ± 0.0 | 0.3 ± 0.0 | 0.2 ± 0.0 | 0.2 ± 0.0 | 1.7 ± 0.2 | 0.6 ± 0.0 | 7.4 ± 1.6 | 3.0 ± 0.8 | Biodistribution: Heart ([2]; 1 hour p.i.): 0.6 ± 0.0 % I.A./g; Biodistribution: Lung ([2]; 1 hour p.i.): 0.9 ± 0.1 % I.A./g; Biodistribution: Muscle ([2]; 1 hour p.i.): 0.8 ± 0.2 % I.A./g; Biodistribution: Adrenal ([2]; 4 hours p.i.): 0.5 ± 0.1 % I.A./g; Biodistribution: Blood ([2]; 4 hours p.i.): 0.4 ± 0.1 % I.A./g; Biodistribution: Muscle ([2]; 4 hours p.i.): 0.4 ± 0.1 % I.A./g; Biodistribution: Pancreas ([2]; 4 hours p.i.): 0.4 ± 0.1 % I.A./g; Accumulation in FAP-positive (HT-1080.hFAP) tumor and murine-FAP-positive tissues, such as the bone marrow (bones) [2]: high accumulation; Retention in the body (remaining PET activity 4 h p.i.), in words [3]: lowest value
4 | N#CC1CC(F)(F)CN1C(=O)CNC(=O)c1ccnc2ccc(NC(=O)CCC(=O)N3CCN(C(=O)CCC(C(=O)O)N4CCN(CC(=O)[O-])CCN(CC(=O)[O-])CC4)CC3)cc12.[61Cu+2] (centres unmarked) [[^61Cu]Cu-NODAGA-3] | 0.9 ± 0.3 % of the applied activity | 26.6 ± 4.9 % of the applied activity | 1.2 ± 0.4 % of the applied activity | 36.9 ± 5.3 % of the applied activity | 1.4 ± 0.4 % of the applied activity | 39.4 ± 4.8 % of the applied activity | 0.8 ± 0.2 | 0.9 ± 0.1 | 0.5 ± 0.1 | 0.8 ± 0.1 | 0.5 ± 0.0 | 0.4 ± 0.1 | 0.7 ± 0.1 | 0.7 ± 0.1 | 0.3 ± 0.0 | 0.5 ± 0.0 | 4.0 ± 2.2 | 1.8 ± 0.3 | 7.9 ± 0.9 | 6.4 ± 2.0 | Biodistribution: Heart ([2]; 1 hour p.i.): 0.7 ± 0.1 % I.A./g; Biodistribution: Blood ([2]; 4 hours p.i.): 0.9 ± 0.0 % I.A./g; Biodistribution: Kidneys ([2]; 4 hours p.i.): 1.0 ± 0.2 % I.A./g; Biodistribution: Pancreas ([2]; 4 hours p.i.): 0.9 ± 0.0 % I.A./g; Accumulation in FAP-positive (HT-1080.hFAP) tumor and murine-FAP-positive tissues, such as the bone marrow (bones) [2]: high accumulation
